Measurements from patent publication US9770026B2, “Substituted pyrimidine compound and uses thereof” (Shenyang Sinochem Agrochemicals R&D Co., Ltd., priority 2012, dated 2017).

tested on: wheat powdery mildew; assay: protectant activity in vivo against wheat powdery mildew; settings: Triticum aestivum, 168 h, read-out: control effect against wheat powdery mildew (%), 6.25 mg/L; protectant activity

| SMILES | pest or weed control at 6.25 µg/mL |
| --- | --- |
| CCc1ncnc(OCCc2ccc(Oc3ccccc3)cc2)c1Cl [CK13, reference compound] | 0% |
| CCc1ncnc(OCCc2ccc(OCc3ccccc3)cc2)c1Cl [CK14, reference compound] | 0% |
| CC(Cl)c1ncnc(NCCc2ccc(Oc3ccc(C(F)(F)F)cc3)cc2)c1Cl (stereo not drawn) [CK20, reference compound] | 0% |

same assay, conditions: Triticum aestivum, 168 h, read-out: control effect against wheat powdery mildew (%), 25 mg/L; protectant activity

| SMILES | pest or weed control at 25 µg/mL |
| --- | --- |
| CCc1ncnc(OCCc2ccc(Oc3ccccc3)cc2)c1Cl [CK13, reference compound] | 0% |
| CCc1ncnc(OCCc2ccc(OCc3ccccc3)cc2)c1Cl [CK14, reference compound] | 0% |
| CC(Cl)c1ncnc(NCCc2ccc(Oc3ccc(C(F)(F)F)cc3)cc2)c1Cl (stereo not drawn) [CK20, reference compound] | 0% |

same assay, conditions: Triticum aestivum, 168 h, read-out: control effect against wheat powdery mildew (%), 100 mg/L; protectant activity

| SMILES | pest or weed control at 100 µg/mL |
| --- | --- |
| CCc1ncnc(OCCc2ccc(Oc3ccccc3)cc2)c1Cl [CK13, reference compound] | 0% |
| CCc1ncnc(OCCc2ccc(OCc3ccccc3)cc2)c1Cl [CK14, reference compound] | 10% |
| CC(Cl)c1ncnc(NCCc2ccc(Oc3ccc(C(F)(F)F)cc3)cc2)c1Cl (stereo not drawn) [CK20, reference compound] | 30% |

same assay, conditions: Triticum aestivum, 168 h, read-out: control effect against wheat powdery mildew (%), 400 mg/L; protectant activity

| SMILES | pest or weed control at 400 µg/mL |
| --- | --- |
| CCc1ncnc(OCCc2ccc(Oc3ccccc3)cc2)c1Cl [CK13, reference compound] | 40% |
| CCc1ncnc(OCCc2ccc(OCc3ccccc3)cc2)c1Cl [CK14, reference compound] | 85% |
| CC(Cl)c1ncnc(NCCc2ccc(Oc3ccc(C(F)(F)F)cc3)cc2)c1Cl (stereo not drawn) [CK20, reference compound] | 100% |

tested on: cucumber downy mildew; assay: protectant activity in vivo against cucumber downy mildew; settings: Cucumis sativus, 168 h, read-out: control effect against cucumber downy mildew (%), 25 mg/L; protectant activity

| SMILES | pest or weed control at 25 µg/mL |
| --- | --- |
| CCc1ncnc(OCCc2ccc(Oc3ccccc3)cc2)c1Cl [CK13, reference compound] | 0% |
| CCc1ncnc(OCCc2ccc(OCc3ccccc3)cc2)c1Cl [CK14, reference compound] | 0% |
| CC(Cl)c1ncnc(NCCc2ccc(Oc3ccc(C(F)(F)F)cc3)cc2)c1Cl (stereo not drawn) [CK20, reference compound] | 0% |

same assay, conditions: Cucumis sativus, 168 h, read-out: control effect against cucumber downy mildew (%), 50 mg/L; protectant activity

| SMILES | pest or weed control at 50 µg/mL |
| --- | --- |
| CCc1ncnc(OCCc2ccc(Oc3ccccc3)cc2)c1Cl [CK13, reference compound] | 0% |
| CCc1ncnc(OCCc2ccc(OCc3ccccc3)cc2)c1Cl [CK14, reference compound] | 0% |
| CC(Cl)c1ncnc(NCCc2ccc(Oc3ccc(C(F)(F)F)cc3)cc2)c1Cl (stereo not drawn) [CK20, reference compound] | 0% |

same assay, conditions: Cucumis sativus, 168 h, read-out: control effect against cucumber downy mildew (%), 100 mg/L; protectant activity

| SMILES | pest or weed control at 100 µg/mL |
| --- | --- |
| CCc1ncnc(OCCc2ccc(Oc3ccccc3)cc2)c1Cl [CK13, reference compound] | 25% |
| CCc1ncnc(OCCc2ccc(OCc3ccccc3)cc2)c1Cl [CK14, reference compound] | 40% |
| CC(Cl)c1ncnc(NCCc2ccc(Oc3ccc(C(F)(F)F)cc3)cc2)c1Cl (stereo not drawn) [CK20, reference compound] | 10% |

same assay, conditions: Cucumis sativus, 168 h, read-out: control effect against cucumber downy mildew (%), 400 mg/L; protectant activity

| SMILES | pest or weed control at 400 µg/mL |
| --- | --- |
| CCc1ncnc(OCCc2ccc(Oc3ccccc3)cc2)c1Cl [CK13, reference compound] | 85% |
| CCc1ncnc(OCCc2ccc(OCc3ccccc3)cc2)c1Cl [CK14, reference compound] | 98% |
| CC(Cl)c1ncnc(NCCc2ccc(Oc3ccc(C(F)(F)F)cc3)cc2)c1Cl (stereo not drawn) [CK20, reference compound] | 100% |

tested on: cucumber gray mold; assay: fungicidal activity in vitro (inhibition rate) against cucumber gray mold; type: cell-based; settings: 25 ppm, in vitro; read-out: inhibition rate against cucumber gray mold

| SMILES | inhibition at 25 ppm |
| --- | --- |
| CCc1ncnc(OCCc2ccc(Oc3ccccc3)cc2)c1Cl [CK13, reference compound] | 0% |
| CCc1ncnc(OCCc2ccc(OCc3ccccc3)cc2)c1Cl [CK14, reference compound] | 0% |
| CC(Cl)c1ncnc(NCCc2ccc(Oc3ccc(C(F)(F)F)cc3)cc2)c1Cl (stereo not drawn) [CK20, reference compound] | < 50% |

tested on: Diamond back moth; assay: insecticidal activity against diamond back moth, airbrush spray; type: in vivo; settings: 72 h, 10 mg/L
Method in brief: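 Airbrush leaf-disc spray test: both faces of 2 cm cabbage discs received 0.5 ml of test solution at 0.7 kg/cm^2. Solutions were made in acetone:methanol (1:1) and brought to concentration with 0.1% Tween 80 in water. Ten second-instar larvae per disc, triplicates, were held at 25° C and 60˜70% R.H., with mortality recorded at 72 hrs.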

| SMILES | pest or weed control at 10 µg/mL |
| --- | --- |
| CCc1ncnc(OCCc2ccc(Oc3ccccc3)cc2)c1Cl [CK13, reference compound] | 0% |
| CCc1ncnc(OCCc2ccc(OCc3ccccc3)cc2)c1Cl [CK14, reference compound] | 0% |

same assay, conditions: 72 h, 100 mg/L

| SMILES | pest or weed control at 100 µg/mL |
| --- | --- |
| CCc1ncnc(OCCc2ccc(Oc3ccccc3)cc2)c1Cl [CK13, reference compound] | 16% |
| CCc1ncnc(OCCc2ccc(OCc3ccccc3)cc2)c1Cl [CK14, reference compound] | 10% |

same assay, conditions: 72 h, 600 mg/L

| SMILES | pest or weed control at 600 µg/mL |
| --- | --- |
| CCc1ncnc(OCCc2ccc(Oc3ccccc3)cc2)c1Cl [CK13, reference compound] | 67% |
| CCc1ncnc(OCCc2ccc(OCc3ccccc3)cc2)c1Cl [CK14, reference compound] | 67% |
| CC(Cl)c1ncnc(NCCc2ccc(Oc3ccc(C(F)(F)F)cc3)cc2)c1Cl (stereo not drawn) [CK20, reference compound] | 57% |

tested on: corn rust; assay: protectant activity in vivo against corn rust; settings: Zea mays, 168 h, read-out: control effect against corn rust (%), 6.25 mg/L; protectant activity

| SMILES | pest or weed control at 6.25 µg/mL |
| --- | --- |
| CCc1ncnc(OCCc2ccc(Oc3ccccc3)cc2)c1Cl [CK13, reference compound] | 0% |
| CCc1ncnc(OCCc2ccc(OCc3ccccc3)cc2)c1Cl [CK14, reference compound] | 0% |
| CC(Cl)c1ncnc(NCCc2ccc(Oc3ccc(C(F)(F)F)cc3)cc2)c1Cl (stereo not drawn) [CK20, reference compound] | 0% |

same assay, conditions: Zea mays, 168 h, read-out: control effect against corn rust (%), 25 mg/L; protectant activity

| SMILES | pest or weed control at 25 µg/mL |
| --- | --- |
| CCc1ncnc(OCCc2ccc(Oc3ccccc3)cc2)c1Cl [CK13, reference compound] | 0% |
| CCc1ncnc(OCCc2ccc(OCc3ccccc3)cc2)c1Cl [CK14, reference compound] | 0% |
| CC(Cl)c1ncnc(NCCc2ccc(Oc3ccc(C(F)(F)F)cc3)cc2)c1Cl (stereo not drawn) [CK20, reference compound] | 0% |

same assay, conditions: Zea mays, 168 h, read-out: control effect against corn rust (%), 100 mg/L; protectant activity

| SMILES | pest or weed control at 100 µg/mL |
| --- | --- |
| CCc1ncnc(OCCc2ccc(Oc3ccccc3)cc2)c1Cl [CK13, reference compound] | 0% |
| CCc1ncnc(OCCc2ccc(OCc3ccccc3)cc2)c1Cl [CK14, reference compound] | 20% |
| CC(Cl)c1ncnc(NCCc2ccc(Oc3ccc(C(F)(F)F)cc3)cc2)c1Cl (stereo not drawn) [CK20, reference compound] | 70% |

same assay, conditions: Zea mays, 168 h, read-out: control effect against corn rust (%), 400 mg/L; protectant activity

| SMILES | pest or weed control at 400 µg/mL |
| --- | --- |
| CCc1ncnc(OCCc2ccc(Oc3ccccc3)cc2)c1Cl [CK13, reference compound] | 100% |
| CCc1ncnc(OCCc2ccc(OCc3ccccc3)cc2)c1Cl [CK14, reference compound] | 100% |
| CC(Cl)c1ncnc(NCCc2ccc(Oc3ccc(C(F)(F)F)cc3)cc2)c1Cl (stereo not drawn) [CK20, reference compound] | 100% |

tested on: carmine spider mite; assay: bioactivity test against carmine spider mite, airbrush spray; type: in vivo; settings: Tetranychus cinnabarinus, 72 h, 10 mg/L; contrastive test; read-out: Insecticidal activity against carmine spider mite (% )
Method in brief: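 Broadbean seedlings infested with adult mites were sprayed with compound (acetone/methanol stock diluted in 0.1% Tween 80 water) by airbrush at 0.7 kg/cm^2, 0.5 ml. Three replicates were run. Mortality was scored after 72 hrs.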

| SMILES | pest or weed control at 10 µg/mL |
| --- | --- |
| CCc1ncnc(OCCc2ccc(Oc3ccccc3)cc2)c1Cl [CK13, reference compound] | 0% |
| CCc1ncnc(OCCc2ccc(OCc3ccccc3)cc2)c1Cl [CK14, reference compound] | 6% |

same assay, conditions: Tetranychus cinnabarinus, 72 h, 100 mg/L; contrastive test; read-out: Insecticidal activity against carmine spider mite (% )

| SMILES | pest or weed control at 100 µg/mL |
| --- | --- |
| CCc1ncnc(OCCc2ccc(Oc3ccccc3)cc2)c1Cl [CK13, reference compound] | 0% |
| CCc1ncnc(OCCc2ccc(OCc3ccccc3)cc2)c1Cl [CK14, reference compound] | 33% |
| CC(Cl)c1ncnc(NCCc2ccc(Oc3ccc(C(F)(F)F)cc3)cc2)c1Cl (stereo not drawn) [CK20, reference compound] | 72% |

same assay, conditions: Tetranychus cinnabarinus, 72 h, 600 mg/L; contrastive test; read-out: Insecticidal activity against carmine spider mite (% )

| SMILES | pest or weed control at 600 µg/mL |
| --- | --- |
| CCc1ncnc(OCCc2ccc(Oc3ccccc3)cc2)c1Cl [CK13, reference compound] | 100% |
| CCc1ncnc(OCCc2ccc(OCc3ccccc3)cc2)c1Cl [CK14, reference compound] | 100% |
| CC(Cl)c1ncnc(NCCc2ccc(Oc3ccc(C(F)(F)F)cc3)cc2)c1Cl (stereo not drawn) [CK20, reference compound] | 100% |

tested on: rice blast; assay: microbe, parasite or virus in culture; type: cell-based; settings: Pyricularia oryzae, read-out: inhibition rate against rice blast, 8.3 ppm, in vitro

| SMILES | inhibition at 8.3 ppm |
| --- | --- |
| CCc1ncnc(OCCc2ccc(OCc3ccccc3)cc2)c1Cl [CK14, reference compound] | 0% |

same assay, conditions: Pyricularia oryzae, read-out: inhibition rate against rice blast, 25 ppm, in vitro

| SMILES | inhibition at 25 ppm |
| --- | --- |
| CCc1ncnc(OCCc2ccc(Oc3ccccc3)cc2)c1Cl [CK13, reference compound] | 0% |
| CC(Cl)c1ncnc(NCCc2ccc(Oc3ccc(C(F)(F)F)cc3)cc2)c1Cl (stereo not drawn) [CK20, reference compound] | < 50% |

tested on: armyworm; assay: bioactivity test against armyworm, airbrush spray; type: in vivo; settings: 72 h, 10 mg/L; read-out: Insecticidal activity against armyworm (%)

| SMILES | pest or weed control at 10 µg/mL |
| --- | --- |
| CCc1ncnc(OCCc2ccc(Oc3ccccc3)cc2)c1Cl [CK13, reference compound] | 0% |
| CC(Cl)c1ncnc(NCCc2ccc(Oc3ccc(C(F)(F)F)cc3)cc2)c1Cl (stereo not drawn) [CK20, reference compound] | 0% |

same assay, conditions: 72 h, 100 mg/L; read-out: Insecticidal activity against armyworm (%)

| SMILES | pest or weed control at 100 µg/mL |
| --- | --- |
| CCc1ncnc(OCCc2ccc(Oc3ccccc3)cc2)c1Cl [CK13, reference compound] | 0% |

same assay, conditions: 72 h, 600 mg/L; read-out: Insecticidal activity against armyworm (%)

| SMILES | pest or weed control at 600 µg/mL |
| --- | --- |
| CCc1ncnc(OCCc2ccc(Oc3ccccc3)cc2)c1Cl [CK13, reference compound] | 86% |
| CCc1ncnc(OCCc2ccc(OCc3ccccc3)cc2)c1Cl [CK14, reference compound] | 0% |

tested on: Green peach aphids (Myzus Persicae Sulzer); assay: bioactivity test against green peach aphid, airbrush foliar spray; type: in vivo; settings: Myzus persicae, foliar, 48 h, 5 mg/L; contrastive test; read-out: Insecticidal activity against peach aphid (%)
Method in brief: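 Death rate was scored at 48 hrs, held at 25±1 C and 60±5% RH, following airbrush foliar spray (0.5 mL, 10 psi) onto cabbage leaf discs bearing about 15-30 aphids. Test solutions: compound dissolved in 1:1 acetone:methanol, brought to concentration with 0.1% tween 80 water.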

| SMILES | pest or weed control at 5 µg/mL |
| --- | --- |
| CCc1ncnc(OCCc2ccc(Oc3ccccc3)cc2)c1Cl [CK13, reference compound] | 0% |

same assay, conditions: Myzus persicae, foliar, 48 h, 10 mg/L; contrastive test; read-out: Insecticidal activity against peach aphid (%)

| SMILES | pest or weed control at 10 µg/mL |
| --- | --- |
| CCc1ncnc(OCCc2ccc(Oc3ccccc3)cc2)c1Cl [CK13, reference compound] | 83% |
| CCc1ncnc(OCCc2ccc(OCc3ccccc3)cc2)c1Cl [CK14, reference compound] | 0% |

same assay, conditions: Myzus persicae, foliar, 48 h, 100 mg/L; contrastive test; read-out: Insecticidal activity against peach aphid (%)

| SMILES | pest or weed control at 100 µg/mL |
| --- | --- |
| CCc1ncnc(OCCc2ccc(Oc3ccccc3)cc2)c1Cl [CK13, reference compound] | 98% |
| CCc1ncnc(OCCc2ccc(OCc3ccccc3)cc2)c1Cl [CK14, reference compound] | 70% |

same assay, conditions: Myzus persicae, foliar, 48 h, 600 mg/L; contrastive test; read-out: Insecticidal activity against peach aphid (%)

| SMILES | pest or weed control at 600 µg/mL |
| --- | --- |
| CCc1ncnc(OCCc2ccc(Oc3ccccc3)cc2)c1Cl [CK13, reference compound] | 100% |
| CCc1ncnc(OCCc2ccc(OCc3ccccc3)cc2)c1Cl [CK14, reference compound] | 100% |
